Experimental data: ChEMBL document CHEMBL1201862, “PubChem BioAssay data set” (2004)
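All cell lines were grown in 96-well plates and treated with compound for 48 hours. The concentration for 50% growth inhibition is given as GI50.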 Activity calls are given as the source filed them. Rule as the data show it: active = GI50 up to about 1.1 µM and inactive = higher.

Columns and labels:
Assay in all cases: NCI tumour cell line growth inhibition, 48 h
MDA-N = system: MDA-N
DU-145 = system: DU-145
MDA-MB-435 = system: MDA-MB-435

SMILES	GI50 (MDA-N)	GI50 (DU-145)	GI50 (MDA-MB-435)
CSc1nc2c(c(=O)[nH]1)N=C(c1ccccc1)CC(c1ccccc1)N2 (configuration not stated)	20.7 µM (inactive)	30.1 µM (inactive)	40.7 µM (inactive)
O=C(Nc1ccc(Cl)cc1)c1cc(S(=O)(=O)Nc2n[nH]c(=O)[nH]2)c(SSc2cc(Cl)c(C(=O)Nc3ccc(Cl)cc3)cc2S(=O)(=O)Nc2n[nH]c(=O)[nH]2)cc1Cl	> 100 µM (inactive)	–	> 100 µM (inactive)
CC(C)C1=CCC2C(=C1)CCC1C(C)(C(=O)O)CCCC21C (configuration not stated)	> 100 µM (inactive)	> 100 µM (inactive)	> 100 µM (inactive)
CC1(C)OCC2OC3([C@@H]4OC(C)(C)O[C@H]4CO)OC(C)(C)OC3C2O1 (some centres not stated)	> 100 µM (inactive)	> 100 µM (inactive)	> 100 µM (inactive)
c1csc(-c2sc(-c3ccsc3)cc2Cc2ccsc2)c1	> 10 µM (inactive)	> 10 µM (inactive)	> 10 µM (inactive)
Cn1c(=O)c2c(ncn2Cc2ccc(O)c([N+](=O)[O-])c2)n(C)c1=O	> 100 µM (inactive)	> 100 µM (inactive)	> 100 µM (inactive)
COc1ccc(/C=C2\N/C(=N/N)N=C2Cl)cc1	> 100 µM (inactive)	> 100 µM (inactive)	> 100 µM (inactive)
CN(/N=C/c1ccccc1C(=O)O)C1=NCCCCN1	> 100 µM (inactive)	> 100 µM (inactive)	> 100 µM (inactive)
CCOc1ccccc1-c1nc2c(s1)C(=O)c1ccccc1C2=O	2.72 µM (inactive)	19.4 µM (inactive)	2.15 µM (inactive)
CC(=O)NC(Cc1ccc(OP(=O)(OCc2ccc([N+](=O)[O-])o2)N(C)CCCCCl)cc1)C(=O)NC(C)c1ccc(OCC2CCCCC2)c(C(N)=O)c1 (configuration not stated)	2.24 µM (inactive)	3.74 µM (inactive)	2.31 µM (inactive)
C/C=C/[P+](c1ccccc1)(c1ccccc1)c1ccccc1	0.35 µM (active)	1.15 µM (inactive)	0.277 µM (active)
CC(C)=CCC/C(C)=C/Cc1c2c(c3oc(-c4ccc(O)c(O)c4)c(O)c(=O)c3c1O)C=CC(C)(C)O2	5.02 µM (inactive)	2.24 µM (inactive)	5.33 µM (inactive)
O=C1Nc2ccccc2/C1=N/Nc1ccccc1Cl	95.5 µM (inactive)	70 µM (inactive)	> 100 µM (inactive)
CCCCCCCCCCCCCCCCOCC(Cl)CP(=O)(O)OP(=O)(O)OCC1OC(n2cnc3c(N)ncnc32)C(O)C1O (configuration not stated)	> 100 µM (inactive)	> 100 µM (inactive)	> 100 µM (inactive)
O=[N+]([O-])c1cnc(N(CCO)CCO)s1	> 100 µM (inactive)	> 100 µM (inactive)	> 100 µM (inactive)
Cc1ccc2c(O)cc(-c3ccc(Cl)cc3)nc2n1	1.56 µM (inactive)	6.05 µM (inactive)	1.32 µM (inactive)
COc1cc2c(cc1O)C1Cc3ccc(OC)c(O)c3C(C2)N1C (configuration not stated)	> 100 µM (inactive)	> 100 µM (inactive)	> 100 µM (inactive)
CC(=O)O[C@H]1[C@@H](OC2CCCC2(c2ccccc2)c2ccccc2)O[N+]([O-])=C[C@@H]1c1ccccc1 (some centres not stated)	4.94 µM (inactive)	5.75 µM (inactive)	3.34 µM (inactive)
Cc1ccccc1C(=O)N/N=C/c1ccc(Sc2nccn2C)c([N+](=O)[O-])c1	32.7 µM (inactive)	88.3 µM (inactive)	25.9 µM (inactive)
O=c1[nH]nc(Cc2ccccc2)n1O	> 100 µM (inactive)	> 100 µM (inactive)	> 100 µM (inactive)
Cc1ccc(-c2cs/c(=N\c3ccccc3)n2NC(=O)c2ccncc2)cc1	25.4 µM (inactive)	56.2 µM (inactive)	29.4 µM (inactive)
N#CC1=C(N)N2C(=O)/C(=C/c3ccccc3O)N=C2S1	86.3 µM (inactive)	> 100 µM (inactive)	> 100 µM (inactive)
C=CCOc1ccc(C(=N/NC(=O)c2ccccc2)/N=N/c2ccc(C)cc2)cc1OC	20.7 µM (inactive)	37.2 µM (inactive)	19.5 µM (inactive)
O=C(NN=C1CCN(Cc2ccccc2)CC1)C(O)(c1ccccc1)c1ccccc1	–	> 100 µM (inactive)	> 100 µM (inactive)
NCCN1CCCCCc2ccccc21	–	> 10 µM (inactive)	> 10 µM (inactive)
